Experimental data reported in patent US20230060174A1, “PHARMACEUTICAL COMPOSITION OF TRICYCLIC PDE3/PDE4 DUAL INHIBITOR COMPOUND” (CHIA TAI TIANQING PHARMACEUTICAL GROUP CO., LTD., priority 2020, published 2023).

Experiments:
PDE4 = settings: reported in literature; cited from earlier work
[1] = reported in literature; cited from earlier work
[2] = reported in literature; cited from earlier work; remark: listed apart in the source
[3] = Hygroscopicity study by dynamic vapor sorption (DVS); format: physicochemical; settings: 25° C., RH 0%-90%-0%
Procedure: Experimental Example 2: Hygroscopicity study of crystalline form of the compound of formula (I)
Instrument model: SMS DVS Advantage
Test conditions: the sample (10-20 mg, the crystalline form prepared in Example 3) was placed in DVS sample tray for testing.
The detailed DVS parameters are as follows:
Balancing: dm/dt=0.01%/min (shortest: 10 min, longest: 180 min)
Drying: drying at 0% RH for 120 min
RH (%) test gradient: 10%
Range of RH (%) test gradient: 0%-90%-0%.

[4] = Stability study of solid crystalline form (HPLC total impurities); format: physicochemical
Procedure: Experimental Example 1: Stability study of solid crystalline form of the compound of formula (I)
High performance liquid chromatography (HPLC) • The chromatographic conditions of the HPLC method are seen in table below: • Chromatography column: Zorbax SB C-18, 4.6 mm×150 mm, 5 μm (PDS-HPLC-007) • Mobile phase A: 0.1% TFA in water • Mobile phase B: 100% ACN
Preparation of sample: the sample was dissolved with a mixed solvent of acetonitrile and water (acetonitrile: water=50:50 (v/v))
Solid stability stakeout method
The stability of the compound in the following conditions was examined, and samples were taken at different time points to detect the content. About 5 mg of the crystalline form of the compound of formula (I) prepared in Example 2 was accurately weighted in duplicate, transferred to a dry and clean glass bottle, spread into a thin layer as test samples, and placed in experimental conditions of influential factors ((60° C.), (relative humidity 92.5%), illumination (total illumination of 1.2×10^6 Luxhr/near UV energy of 200 whr/m^2), (40° C., relative humidity 75%), or (60° C., relative humidity 75%)). The samples were covered with aluminum foils having holes, and thus completely exposed to the conditions. Sampling analysis was performed at 5 days, 10 days, 1 month, 2 months and 3 months. The samples were completely exposed to illumination (visible light of 1200000 Lux, UV of 200 W) at room temperature.

Structure (SMILES) | PDE4 inhibitory activity (PDE4) | Plasma clearance [1] | Solubility [2] | Hygroscopicity (DVS) [3] | Total impurities % ([4]; 40° C. + 75% RH - 1 month) [%] | Total impurities % ([4]; 40° C. + 75% RH - 2 months) [%] | Total impurities % ([4]; 40° C. + 75% RH - 3 months) [%] | Total impurities % ([4]; 40° C. + 75% RH - 10 days) [%] | Total impurities % ([4]; 60° C. + 75% RH - 1 month) [%] | Total impurities % ([4]; 60° C. + 75% RH - 10 days) [%] | Total impurities % ([4]; 60° C. - 5 days) [%] | Total impurities % ([4]; 60° C. - 10 days) [%] | Total impurities % ([4]; 92.5% RH - 5 days) [%] | Total impurities % ([4]; 92.5% RH - 10 days) [%] | Total impurities % ([4]; Day 0) [%] | Total impurities % ([4]; Illumination (1.2×10^6 Lux hr, near UV 200 w hr/m^2)) [%] | Total impurities % ([4]; In the dark) [%] | Stability in the conditions of high temperature, high humidity or illumination ([4]; high temperature, high humidity or illumination, no increase of impurities)
COc1cc2c(cc1OC)-c1c/c(=N\c3c(C)cc(C)cc3C)n(CCNC(N)=O)c(=O)n1CC2 [RPL554] | unsatisfactory | high | poor | – | – | – | – | – | – | – | – | – | – | – | – | – | – | –
CCOc1cc2c(cc1OC)-c1c/c(=N\c3c(C)cc(C)cc3C)n(CCNC(=O)c3c(O)nnn3C)c(=O)n1CC2 | – | – | – | small hygroscopicity | 0.10 | 0.08 | 0.09 | 0.10 | 0.10 | 0.10 | 0.10 | 0.11 | 0.11 | 0.10 | 0.11 | 0.10 | 0.11 | good stability
